{
  "source": "patent US10201516B2",
  "about": "(The Regents of the University of California, priority 2014, dated 2019)",
  "key": {"PANC1 or PANC2.13": {"tested_on": "PANC1 or PANC2.13", "assay": "Established subcutaneous human pancreatic xenograft tumors", "assay_type": "in vivo, mouse", "protocol": "(§1) The drug was daily administrated into either NOD-SCID or athymic nude mice by oral gavages (OG) at 1 mg/kg or intraperitoneal (I.P) injection at 0.5 mg/kg. 10% DMSO, 10% cremophor, and 80% saline solutions were used as the solvent and vehicle control."}, "[1]": {"tested_on": "K-Ras and CaM interaction", "assay": "CaM pull-down assay of K-Ras/calmodulin interaction", "assay_type": "cell-based", "details": "Ras^V12-transformed cells and multiple human pancreatic cancer cell lines (FIG. 5H)"}, "HIV-1": {"tested_on": "HIV-1", "details": "cited from earlier work"}, "[2]": {"details": "PKC activators, literature; cited from earlier work"}, "LEF1": {"tested_on": "LEF1", "assay": "LEF1 mRNA expression in PANC1 and PANC2.13 (qPCR)", "assay_type": "cell-based", "details": "human pancreatic cancer cells (FIG. 13B)", "protocol": "(§2) Total RNAs were isolated and purified using QIAGEN RNAeasy kit. 1 μg RNA per specimen was reverse transcribed into cDNA using SuperScript™ First-Strand Synthesis System for RT-PCR (Invitrogen). Possible contamination of genomic DNA was excluded by treatments of DNase I. Quantitative real-time PCR array analysis was performed using SYBR Green (Applied Biosystem). Fold differences and statistical analysis were calculated using the GraphPad Prism 4.00 for Windows (GraphPad Software). The mouse Stem Cell Signaling RT^2Profiler PCR array on 96-well plate (PAMM-047Z) was purchased from SABiosciences."}, "[3]": {"tested_on": "Ras^V12-transformed NIH/3T3 cells", "assay": "Drug sensitization assay (MTS cell viability), Ras-transformed NIH/3T3", "assay_type": "cell-based, mouse", "protocol": "(§3) The dead cells were removed, and MTS assay (Promega, G5430) was performed for determining the percentage of viable cells, according to the manufacturer's instructions. DMSO was used as vehicle control and for normalization."}, "PANC1 and PANC2.13 [4]": {"tested_on": "PANC1 and PANC2.13", "assay": "Morphology, viability and proliferating rate of human pancreatic cancer cell lines", "assay_type": "cell-based", "protocol": "as §3"}, "[5]": {"assay": "Toxicity by body weight changes in treated mice", "assay_type": "in vivo, mouse", "details": "oral or i.p. prostratin (FIG. 13D)", "protocol": "as §1"}, "[6]": {"tested_on": "H-Ras^G12V-induced tumors", "assay": "H-Ras^G12V-induced papilloma in LRIG1cre/ER/LSL-Ras^G12V GEMM", "assay_type": "in vivo, mouse", "details": "daily treatment (FIG. 7D)", "from_the_text": "(§4) We first used a papilloma model driven by H- or K-Ras^G12V under the control of a skin stem cell promoter, Lrig1 (FIG. 7C) (Jaks et al., Exp Cell Res 316:1422-1428, 2010; Page et al., Cell Stem Cell 13, 471-482, 2013). In this GEMM, tamoxifen inducible Cre recombinase initiates the expression of oncogenic H- or K-Ras^G12V, and the enforced oncogenic Ras expression disrupts the skin hemeostasis during wound healing and further induces papilloma formations (FIG. 7C).\n(§5) Lrig1 Cre/ER/LSL Hras and Lrig1 Cre/ER/LSL-Kras^G12D mice have been backcrossed into the FVB/N background over multiple generations to minimize the effects of genetic heterogeneity on tumor development. Cre recombinase was activated in both groups of mice by administering a single dose of 4oht (Tamoxifen), topically applied at 8 weeks of age. On day 7 thereafter, wounding was induced on their backs by cutting a 2 cm incision for papilloma development."}, "CaMKii [7]": {"tested_on": "CaMKii", "assay": "Western blot of phospho-CaMKii in rescued Rasless MEFs", "assay_type": "cell-based, mouse", "protocol": "(§6) Experimental cells were washed twice in ice-cold PBS and lysed in 1% Triton lysis buffer [25 mmol/L Tris pH 7.5, 150 mmol/L NaCl, 1% Triton X-100, 1 mmol/L EDTA, 1 mmol/L EGTA, 20 mmol/L NaF, 1 mmol/L […], and 1 mmol/L DTT] supplemented with a protease inhibitor cocktail (Roche) and cleared by centrifugation. Protein concentrations were determined by the Bio-Rad Protein Assay (Bio-Rad). Equal amounts of protein extracts were resolved using SDS-PAGE (NuPAGE; Invitrogen), transferred to a nitrocellulose membrane, and immunoblotted with primary antibodies indicated, followed by secondary antibodies labeled with either IRDye800 (Rockland) or Alexa Fluor 680 (Molecular Probes) and were visualized using a LI-COR Odyssey scanner. A complete list of primary antibodies is provided in the Extended Experimental Procedures."}, "[8]": {"tested_on": "PANC2.13 and PANC1 orthotopic tumors", "assay": "Prevention of orthotopic human pancreatic tumors in NOD-SCID mice", "assay_type": "in vivo, mouse", "protocol": "as §1"}, "Fzd8": {"tested_on": "Fzd8", "assay": "Fzd8 mRNA expression in PANC1 and PANC2.13 (qPCR)", "assay_type": "cell-based", "details": "human pancreatic cancer cells (FIG. 13B)", "protocol": "as §2"}, "[9]": {"tested_on": "PANC2.13 and PANC2.03 orthotopic tumors", "assay": "Established orthotopic human pancreatic tumors, burden by human cfDNA in plasma", "assay_type": "in vivo, mouse", "details": "treatment from 14th day post-implantation, over time (FIG. 7B)", "protocol": "as §1\nAll blood samples were collected in K2EDTA containing tubes (BD Microtainer, Ref 365974) and centrifuged at 1,500 g for 10 min. Then the supernatants were carefully collected from the top portion of the plasma to eliminate the possibility of cell contaminations. The plasma was stored at −80° C. until further use. The cfDNA was extracted from 100 μL of plasma using NucleoSpin Plasma XS kit (Macherey-Nagel; 740900).\nNucleic acid concentrations in all plasma samples were measured by quantitative polymerase chain reaction (PCR) using the AB7900HT (Applied Biosystems, Foster City, CA, USA) and TaqMan Universal PCR Master Mix (Applied Biosystems) according to the manufacturer's protocol. For quantification of human β-actin genomic DNA in mouse plasma samples, the following custom primers and probe sets were used: […]"}, "CaMKii [10]": {"tested_on": "CaMKii", "assay": "Western blot of phospho-CaMKii in Ras-transformed NIH/3T3 cells (and human pancreatic cancer cell lines)", "assay_type": "cell-based, mouse", "protocol": "as §6"}, "[11]": {"tested_on": "K-Ras^G12V-induced papillomas", "assay": "K-Ras^G12V-induced papilloma in LRIG1cre/ER/LSL-Ras^G12V GEMM", "assay_type": "in vivo, mouse", "from_the_text": "as §4, §5"}, "PANC1 and PANC2.13 [12]": {"tested_on": "PANC1 and PANC2.13", "assay": "Prevention of subcutaneous human pancreatic xenograft tumors in nude mice", "assay_type": "in vivo, mouse", "protocol": "as §1"}, "[13]": {"details": "human pancreatic cancer cells (FIG. 14A right)"}, "[14]": {"details": "subcutaneous PANC2.13 (FIG. 6D)"}},
  "note": "Entries after “also recorded” stand apart in the source; their conditions may differ.",
  "data": [
    {"smiles": "CC(=O)O[C@@]12C[C@@H](C)[C@@]3(O)C(C=C(CO)C[C@]4(O)C(=O)C(C)=C[C@@H]34)[C@@H]1C2(C)C", "note": "(stereo partly shown) [prostratin, 12-deoxyphorbol-13-acetate]", "values": [
      {"measurement": "expression of cleaved caspase 3 in subcutaneous tumors", "setting": "PANC1 or PANC2.13; FIG. 14D", "value": "enhanced expression of cleaved caspase 3"},
      {"measurement": "growth rate of established subcutaneous tumors", "setting": "PANC1 or PANC2.13; daily oral treatment from 10 to 14 days post-injection, vs vehicle (FIG. 7A)", "value": "significantly reduced growth rate"},
      {"measurement": "endogenous interaction between K-Ras and CaM", "setting": "[1]", "value": "abolished the endogenous interaction between K-Ras and CaM"},
      {"measurement": "CD4 receptor", "setting": "HIV-1; literature", "value": "down-regulating the CD4 receptor"},
      {"measurement": "reactivation of latent HIV-1", "setting": "HIV-1; memory CD4+ T cells that harbor latent proviruses", "value": "reactivates HIV-1"},
      {"measurement": "tumor promotion", "setting": "[2]", "value": "far less potent for tumor promotion"},
      {"measurement": "expression of β-catenin targeted gene LEF1", "setting": "LEF1", "value": "reduced the expressions of β-catenin targeted gene, LEF1"},
      {"measurement": "sensitivity to prostratin (cell viability)", "setting": "[3]; H-Ras^V12 or K-Ras^V12-S181D-transformed NIH/3T3 cells (FIG. 5J)", "value": "but not H-Ras^V12 or K-Ras^V12-S181D, -transformed NIH/3T3 cells, were sensitive to prostratin"},
      {"measurement": "cell viability", "setting": "[3]; K-Ras^V12-transformed NIH/3T3 cells (FIG. 5J)", "value": "dramatically reduced cell viability"},
      {"measurement": "cell morphology", "setting": "PANC1 and PANC2.13 [4]; human pancreatic cancer cell lines with mutant K-Ras (FIG. 14A left)", "value": "cell morphological changes phenocopying those observed with knock-down of K-Ras or over-expression of Fzd8"},
      {"measurement": "cell viability", "setting": "PANC1 and PANC2.13 [4]; [13]", "value": "significantly reduced cell viability"},
      {"measurement": "proliferating rate", "setting": "PANC1 and PANC2.13 [4]; [13]", "value": "significantly reduced"},
      {"measurement": "systemic toxicity (body weight changes)", "setting": "[5]", "value": "no evidence of systemic toxicity; also recorded: no systematically toxic effects"},
      {"measurement": "initiation of H-Ras^G12V-induced tumors", "setting": "[6]", "value": "no effects"},
      {"measurement": "phospho-CaMKii response", "setting": "CaMKii [7]; Rasless MEFs rescued with H-Ras^V12 (FIG. 13C)", "value": "minimal responses"},
      {"measurement": "phospho-CaMKii", "setting": "CaMKii [7]; Rasless MEFs rescued with K-Ras(4B)^V12 (FIG. 13C)", "value": "increased phospho-CaMKii"},
      {"measurement": "sizes of orthotopic tumors by BLI", "setting": "[8]; FIG. 6E and FIG. 14B", "value": "dramatically reduced the sizes of orthotopic tumors"},
      {"measurement": "metastasis to the peritoneum", "setting": "[8]; FIG. 6E and FIG. 14C", "value": "reduced metastasis to the peritoneum"},
      {"measurement": "formation of primary tumors in the pancreas (H&E staining)", "setting": "[8]; FIG. 6F and FIG. 14B", "value": "most of prostratin treated mice did not show formation of primary tumors in the pancreas"},
      {"measurement": "Ki67 in orthotopic tumors", "setting": "[8]; FIG. 6G and FIG. 14B", "value": "much lower Ki67"},
      {"measurement": "tumor burden in the orthotopic sites", "setting": "[8]; NOD-SCID mice, daily oral treatment, vs control", "value": "lower tumor burden"},
      {"measurement": "expression of Fzd8", "setting": "Fzd8", "value": "increased expression of Fzd8"},
      {"measurement": "concentration of human specific cfDNA", "setting": "[9]", "value": "dramatically decreased"},
      {"measurement": "activation of CaMKii", "setting": "CaMKii [10]; NIH/3T3 cells transformed by K-Ras^V12-S181A mutant or H-Ras^V12 (legend FIG. 5I)", "value": "not K-Ras^V12-S181A mutant or H-Ras^V12"},
      {"measurement": "levels of phospho-CaMKii", "setting": "CaMKii [10]; Ras^V12-transformed cells and human pancreatic cancer cell lines (FIG. 5H-I)", "value": "dramatically elevated levels of phospho-CaMKii"},
      {"measurement": "activity of CaMKii", "setting": "CaMKii [10]; cells transformed by H-Ras^V12 or K-Ras^V12-S181D (FIG. 5I)", "value": "did not alter the activity of CaMKii"},
      {"measurement": "EMT markers (E-cadherin, vimentin) in K-Ras^G12V-driven skin tumors", "setting": "[11]; FIG. 7E", "value": "maintained strong expression of epithelial maker"},
      {"measurement": "growth rate of K-Ras^G12V-induced papillomas", "setting": "[11]; FIG. 14E", "value": "significantly slowed down the growth rate"},
      {"measurement": "formation of papillomas driven by K-Ras^G12V", "setting": "[11]; daily treatment (FIG. 7D)", "value": "significantly delayed/reduced the formation of papillomas"},
      {"measurement": "tumor initiation and tumor size by bioluminescence imaging (BLI)", "setting": "PANC1 and PANC2.13 [12]; subcutaneous PANC2.13 (FIG. 6C)", "value": "profoundly suppressed tumor initiation and tumor size"},
      {"measurement": "expression of Ki67", "setting": "PANC1 and PANC2.13 [12]; [14]", "value": "reduced expression of Ki67"},
      {"measurement": "tumor growth rate during therapy", "setting": "PANC1 and PANC2.13 [12]; [14]", "value": "dramatically reduced tumor growth rate"},
      {"measurement": "average size of established tumors", "setting": "PANC1 and PANC2.13 [12]; subcutaneous PANC2.13, vs control group (FIG. 6B)", "value": "much smaller"},
      {"measurement": "frequency of tumor formation", "setting": "PANC1 and PANC2.13 [12]; subcutaneous xenograft, oral prostratin from one day before implantation, vs vehicle (FIG. 6A)", "value": "significantly reduced the frequency of tumor formation"}
    ]}
  ]
}
